Source: US20240082433A1, “TUMOR RESECTION PROCESS AND COMPOSITION CONTAINING IRIDIUM-CONTAINING NUCLEOSIDE” (Cleveland State University, priority 2022, published 2024)
pIC50: −log10 of the molar value.

How the values were obtained:
[1] = system: brain cancer cells (U87); assay: Uptake/fluorescence imaging in 3D and 2D U87 brain cancer cell culture; format: cell-based, human
Method: To improve the imaging capabilities of this class of compound, additional analogs corresponding to Ir(III)-BZQ nucleoside and Ir(III)-PBO nucleoside (FIG. 5) were synthesized and tested for uptake using 3-dimensional cell culture techniques. […] Fluorescent microscopy was used to investigate the uptake of each nucleoside in which cells were treated with 1 μM of each compound for 24 hours. […] This conclusion is based on the more intense fluorescent signal observed in cells treated with Ir(III)-BZQ nucleoside that accurately defines the overall 3-dimensional shape of the cancerous mass. In particular, the overall intensity in green fluorescence caused by the uptake of Ir(III)-BZQ nucleoside is about 5 times greater than observed in cells treated with equivalent concentrations of Ir(III)-PPY nucleoside. […] While this represents an interesting phenomenon, this behavior precludes the ability of Ir(III)-PBO nucleoside to function as a “tumor margin” imaging agents since there is no defined outline of the cancerous mass.
(§1) Fluorescent microscopy techniques were used to measure both red and green fluorescence associated with the cellular uptake of the analog over a three (3) day treatment period. […] The fluorescent signals are only observed in the 3D cancerous masses, thus making them easily identifiable at low magnification (10×).
FIG. 10 compares fluorescence activity of Ir(III)-BZQ nucleoside with Indocyanine green at a fixed concentration of 10 μM. Images were taken comparing fluorescence emission in the red (600-700 nm) and green spectral range (500-600 nm) after 24 hours post-treatment.

[2] = system: MDA-MB-453; assay: Uptake/fluorescence in 3D TNBC model MDA-MB-453; format: cell-based
Method: (§2) The theranostic activity of […] was also confirmed using 3D models of triple negative breast cancer (TNBC) (MDA-MB-453, MDA-MB-468, BT-549, MDA-MB-231). TNBC cells were chosen due to the poor prognosis caused by their aggressive nature and limited treatment options. 3D cancer cells were treated with 10 μM Ir(III)-BZQ nucleoside for 24 hours prior to microscopy analyses.
Two (2) new Iridium-nucleosides designated Ir(III)-PPY-nucleoside (small, hydrophobic) and Ir(III)-PBO nucleoside (small, hydrophilic) were synthesized and tested as cancer imaging agents. FIG. 14 compares the imaging properties of these two analogs versus our lead agent, Ir(III)-BZQ nucleoside (small, hydrophobic). Experiments were performed treating MDA-MB-453 cells with 1 μM of each compound for 3 days. […] This phenomenon precludes its further development as a tumor margin imaging agent as it poorly defines the entire 3D mass as compared to Ir(III)-BZQ nucleoside and Ir(III)-PPY nucleoside.

[3] = system: cervical cancer cells (KB3-1 cell line); assay: Cellular uptake into KB3-1 cells by fluorescence microscopy; format: cell-based, human
Method: FIG. 3 includes fluorescence microscopy images of the dose-dependent uptake of Ir(III)-PPY nucleoside in the human cancer cell line, KB3-1, particularly showing increased Ir(III)-PPY nucleoside (green) as a function of increasing concentration (Δt=4 hours).
Several Iridium-containing nucleosides were synthesized and their imaging and anti-cancer activities were characterized. One non-limiting example of a compound is designated as Ir(III)-PPY nucleoside and shown in FIG. 2 next to deoxyadenosine. The synthetic design relies on the catalyzed [3+2] cycloaddition of azides to terminal alkynes. In this design, pyridyl triazoles covalently link the metal atom to the deoxyribose and this prevents metal dissociation from the complex. The cellular uptake of Ir(III)-PPY nucleoside into cervical cancer cells (KB3-1 cell line) was evaluated by treating cells with variable concentrations of Ir(III)-PPY nucleoside (0-50 μM). At times ranging from 4 to 24 hours, fluorescence microscopy images were taken using an excitation wavelength (λex) of 340 nm and an emission wavelength (λem) of 480 nm. […] The uptake of low concentrations (10 μM) of Ir(III)-PPY nucleoside can be visualized as early as 4 hours post treatment. […] Thus, the cellular uptake can be measured on short time scales (Δt<12 hours) without complications arising from effects on cell viability.

[4] = system: cervical cancer cells (KB3-1 cell line); assay: Cytotoxic effects in KB3-1 cells; format: cell-based, human; details: KB3-1, after 24 hours
Text: Several Iridium-containing nucleosides were synthesized and their imaging and anti-cancer activities were characterized. One non-limiting example of a compound is designated as Ir(III)-PPY nucleoside and shown in FIG. 2 next to deoxyadenosine. The synthetic design relies on the catalyzed [3+2] cycloaddition of azides to terminal alkynes. In this design, pyridyl triazoles covalently link the metal atom to the deoxyribose and this prevents metal dissociation from the complex. The cellular uptake of Ir(III)-PPY nucleoside into cervical cancer cells (KB3-1 cell line) was evaluated by treating cells with variable concentrations of Ir(III)-PPY nucleoside (0-50 μM). At times ranging from 4 to 24 hours, fluorescence microscopy images were taken using an excitation wavelength (λex) of 340 nm and an emission wavelength (λem) of 480 nm. […] The uptake of low concentrations (10 μM) of Ir(III)-PPY nucleoside can be visualized as early as 4 hours post treatment. Ir(III)-PPY nucleoside produces weak cytotoxic effects (IC50˜50 μM) after 24 hours. Thus, the cellular uptake can be measured on short time scales (Δt<12 hours) without complications arising from effects on cell viability.

[5] = system: human brain cancer cell line, U87, that expresses red fluorescent protein (RFP); assay: Selective uptake in co-culture, RFP-U87 cells, fluorescent microscopy; format: cell-based; details: RFP-U87 co-cultured with normal fibroblasts, 10 μM, 4 hours
Text: FIG. 4 includes microscopy images showing co-localization of Ir(III)-PPY nucleoside in glioblastoma cells expressing red-fluorescent protein (RFP-U87).
(§3) Fluorescent microscopy was then used to validate that the uptake of Ir(III)-PPY nucleoside is selective for cancer cells. FIG. 4 compares the uptake of Ir(III)-PPY nucleoside using a human brain cancer cell line, U87, that expresses red fluorescent protein (RFP) versus normal fibroblasts. In these experiments, RFP-U87 cells were co-cultured with normal fibroblasts overnight and then treated with 10 μM Ir(III)-PPY nucleoside for 4 hours. […] Similar results were obtained at longer time intervals encompassing 24 hours incubation with Ir(III)-PPY nucleoside (data not shown).

[6] = system: normal fibroblasts; assay: Selective uptake in co-culture, normal fibroblasts, fluorescent microscopy; format: cell-based; details: co-cultured with RFP-U87, 10 μM, 4 hours
Method: as §3

[7] = system: brain cancer cells (U87); assay: Cell-killing effects against 2D and 3D U87 brain cancer cells by microscopy; format: cell-based, human; details: for cell-killing / therapeutic activity: U87 3D masses and 2D cells, 10 μM
Method: FIG. 7 illustrates the time-dependent uptake and cell-killing effects of Ir(III)-BZQ nucleoside (10 μM) against 2D and 3D brain cancer cells.
as §1

[8] = system: MDA-MB-468; assay: Uptake/fluorescence in 3D TNBC model MDA-MB-468; format: cell-based; details: 3D MB-468, 10 μM, 24 hours
Method: as §2

[9] = system: BT-549; assay: Uptake/fluorescence in 3D TNBC model BT-549; format: cell-based; details: 3D BT-549, 10 μM, 24 hours
Method: as §2

[10] = system: MDA-MB-231; assay: Uptake/fluorescence in 3D TNBC model MDA-MB-231; format: cell-based; details: 3D MB-231, 10 μM, 24 hours
Method: as §2

[11] = system: MT1A2 cells (derived from PyMT); assay: Uptake/fluorescence in MT1A2 cells; format: cell-based; details: MT1A2, 10 μM, 24 hours
[12] = system: normal fibroblasts; assay: LD50 in 2D cell culture, normal fibroblasts; format: cell-based; details: 2D cell cultures
Text: The therapeutic activity and selectivity of Ir(III)-BZQ nucleoside was confirmed by measuring LD50 values against MB-468 cells (high accumulation), MDA-MB-231 (low accumulation), and normal fibroblasts using 2D cell cultures (Table 1, below).

[13] = system: MDA-MB-468 cells; assay: Dual parameter flow cytometry (Annexin V / propidium iodide) apoptosis; format: cell-based; details: MDA-MB-468, variable concentrations
Text: Dual parameter flow cytometry employing Annexin V and propidium iodide staining was used to measure apoptosis in MDA-MB-468 cells treated with variable concentrations of Ir(III)-BZQ nucleoside. […] Microscopy imaging verifies an increase in green fluorescence caused by the accumulation of Ir(III)-BZQ nucleoside and correlates with the dose-dependent increase in apoptosis caused by the agent.

[14] = U87, 10 μM, three days vs 1 day

## F[P-](F)(F)(F)(F)F.OCC1OC(n2cc(-c3ccccn3)nn2)CC1O.c1ccc(-c2ncco2)[c]([Ir][c]2ccccc2-c2ncco2)c1 [Ir(III)-PBO nucleoside]
[1]; U87 3D masses, 1 μM, 24 hours
  fluorescence pattern in cells: unique punctates
  red fluorescence: not observed
[2]; MDA-MB-453, 1 μM, 3 days
  fluorescence pattern in cells: unique punctates

## F[P-](F)(F)(F)(F)F.OCC1OC(n2cc(-c3ccccn3)nn2)CC1O.c1ccc(-c2cccc[c]2[Ir][c]2ccccc2-c2ccccn2)nc1 [Ir(III)-PPY nucleoside]
[3]; KB3-1, 0-50 μM, 4 to 24 hours, λex 340 nm, λem 480 nm
  intracellular accumulation (green fluorescence): dose-dependent
[3]; KB3-1, 10 μM
  time post treatment at which uptake can be visualized: ≤ 4 h
[4]
  pIC50: ~4.30
[5]
  uptake in U87 cancer cells: rapidly accumulates
[6]
  uptake in normal fibroblasts: no uptake
[1]; U87 3D masses, 1 μM, 24 hours
  red fluorescence: not observed

## F[P-](F)(F)(F)(F)F.OCC1OC(n2cc(-c3ccccn3)nn2)CC1O.c1cnc2c(c1)ccc1ccc[c]([Ir][c]3cccc4ccc5cccnc5c34)c12 [Ir(III)-BZQ nucleoside]
[1]; 10 μM, 24 hours post-treatment
  fluorescence emission in the green spectral range (500-600 nm), direct comparison: superior fluorescence emission
[1]; U87 3D masses, 1 μM, 24 hours
  imaging activity amongst the three compounds tested: superior activity
  red fluorescence: display red fluorescence
[1]; U87 3D masses, 1 μM, 24 hours, equivalent concentrations
  overall intensity in green fluorescence relative to Ir(III)-PPY nucleoside: about 5 times
[1]; U87, 10 μM, 10× magnification
  fluorescence signal in 2D cells: Little to no fluorescence signal
[1]; U87, 10 μM, after 1 day, 10× magnification
  fluorescence signals in 3D cancerous masses: intense red and green fluorescence signals
[1]; U87, 10 μM, after three days
  fluorescence signals in 3D masses: still show intense fluorescence signals
[7]; 1 to 3 days treatment
  cell-killing / therapeutic activity: possesses cell-killing activity
[7]; [14]
  cell-killing effect on 2D cells: reduction in the number of 2D cells
  cell-killing effect on 3D masses: death of cells that reside at the outer fringe of the cancerous mass
[2]; 3D MB-453, 10 μM, 24 hours
  fluorescence signals (uptake and accumulation): high fluorescence signals
[2]; MDA-MB-453, 1 μM, 3 days
  fluorescence intensity compared to Ir(III)-PPY nucleoside and Ir(III)-PBO nucleoside: ~5 fold
  imaging activity among the three compounds: superior activity
[8]
  fluorescence signals (uptake and accumulation): high fluorescence signals
[9]
  fluorescence signals (uptake and accumulation): weak fluorescence
[10]
  fluorescence signals (uptake and accumulation): weak fluorescence
[11]
  fluorescence signals (uptake and accumulation): no fluorescence signals
[12]
  cytotoxic effects (LD50): minimal cytotoxic effects
[13]
  apoptosis: increase in both early- and late-stage apoptosis
  necrotic cell death: without causing necrotic cell death

## CC1(C)C(/C=C/C=C/C=C/C=C2\N(CCCCS(=O)(=O)O)c3ccc4ccccc4c3C2(C)C)=[N+](CCCCS(=O)(=O)[O-])c2ccc3ccccc3c21 [Indocyanine green, reference compound]
[1]; 10 μM, 24 hours post-treatment
  fluorescence emission in the red spectral range (600-700 nm), direct comparison: superior fluorescence emission activity
[1]; 1 and 10 μM, after 24 hours, 10× magnification
  red fluorescence in U87 cells: dose-and time dependent increase in red fluorescence
[1]; U87, identical concentrations (1 and 10 μM), 24 hours
  fluorescence emission activity in the red spectral range (600-700 nm) relative to Ir(III) BZQ nucleoside: ~5 times
[7]; 1 to 3 days treatment
  cell-killing / therapeutic activity: no detectable therapeutic activity
[7]; U87, 10 μM, 1 to 3 days treatment
  overall size of the 3D masses: increases as a function of time
